Holding throughout (assay): Homologous whole cell competition binding
Common to all, as to conditions: homologous competition of 125I-sCT(8-32), whole cells, mean ± S.E.M., SEM

Experiment [1] has as its target T1, hCTR F359A (Homo sapiens, UniProt P30988, F359A).
T1 construct: expressed in transfected cells
T1 sequence (P30988 25-474 F359A): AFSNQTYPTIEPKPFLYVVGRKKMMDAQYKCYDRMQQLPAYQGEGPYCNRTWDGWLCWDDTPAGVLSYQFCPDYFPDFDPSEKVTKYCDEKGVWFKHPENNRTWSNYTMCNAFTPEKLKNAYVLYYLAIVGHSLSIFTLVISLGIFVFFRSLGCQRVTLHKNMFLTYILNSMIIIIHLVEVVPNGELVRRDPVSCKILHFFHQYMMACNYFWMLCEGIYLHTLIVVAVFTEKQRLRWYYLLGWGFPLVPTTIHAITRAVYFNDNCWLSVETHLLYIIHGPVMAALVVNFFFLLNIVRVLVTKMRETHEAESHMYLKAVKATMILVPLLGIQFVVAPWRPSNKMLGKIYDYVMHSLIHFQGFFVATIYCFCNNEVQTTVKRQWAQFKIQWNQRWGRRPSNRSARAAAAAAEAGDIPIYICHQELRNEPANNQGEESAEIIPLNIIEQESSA
As to the method: (§1) Homologous radioligand competition was performed on 2.5 × 10^4 cells/well seeded into 96-well trays and cultured overnight. Cells were incubated overnight at 4 °C with two concentrations of ^125I-sCT(8-32) (between 25 and 100 pM; specific activity, 2000 Ci/mmol^9) and serial dilutions of non-iodinated sCT(8-32). Non-bound ligand was removed and bound ligand activity was measured using a γ counter (Wallac Wizard 1470 Gamma Counter, Perkin Elmer, 80% counter efficiency). Values were normalized against non-specific binding (0%) defined by the presence of 1 μM of unlabelled sCT(8-32), and total ligand bound in absence of competing sCT(8-32) (100%).
(§2) IC50 and Bmax values were estimated from competitive inhibition of ^125I-sCT(8-32) binding using a 3-parameter logistic equation (log(inhibitor versus response)) in Prism (v7; Graphpad). Data were corrected for radioligand occupancy using the Cheng-Prusoff equation in Prism; as such data are reported as pKi. Emax and EC50 were estimated from concentration-response curves using with a 3-parameter logistic equation in Prism (v7). These values are a composite of functional affinity, efficacy and stimulus response coupling. The Black and Leff operational model of agonism was applied to separate effects on pathway-specific efficacy (τ) from those that modify ligand functional affinity (pKA). Derived τ values were normalized to experimentally determined levels of cell surface expression to provide a measure of efficacy (τc) that is independent of affinity and altered cell surface receptor expression. pKi, pKA and log τc values for mutant receptors were statistically compared to those of the WT receptor using a one-way analysis of variance (ANOVA) and Dunnett’s post-test. Significance was accepted at P < 0.05.

The target of experiment [2] is T2, hCTR M367A (Homo sapiens, UniProt P30988, M367A).
T2 construct: c-Myc (N); expressed in transfected cells
T2 sequence (P30988 25-474 M367A): T1 sequence (P30988 25-474 F359A) with A335F, M343A
As to the method: as §1, §2

In experiment [3] the target is T3, hCTR M376A (Homo sapiens, UniProt P30988, M376A).
T3 construct: c-Myc (N); expressed in transfected cells
T3 sequence (P30988 25-474 M376A): T1 sequence (P30988 25-474 F359A) with A335F, M352A
The protocol: as §1, §2

Experiment [4] concerns the target T4, hCTR V375A (Homo sapiens, UniProt P30988, V375A).
T4 construct: c-Myc (N); expressed in transfected cells
T4 sequence (P30988 25-474 V375A): T1 sequence (P30988 25-474 F359A) with A335F, V351A
The protocol: as §1, §2

Substitutions are numbered along the chain they refer to. Where no end group is shown, it is not given here.

The term Ki denotes a measure of affinity in units of concentration, obtained from inhibition or displacement. Low values mean tighter binding, high ones weaker binding.

In the case of “VLGKLSQELHKLQTYPRTNTGSGTP-NH2 [sCT(8-32)]”, the Ki in experiment [1] was 0.219 nM; in experiment [2] it was 0.295 nM; in experiment [3] it was 0.132 nM; in experiment [4] it was 0.191 nM.
